Measured values from US20140329863A1 (priority 2011, published 2014).
≈ marks a conversion by molar mass, not a printed value. Read-outs that look alike come from different tables or passages of the source.

Columns and labels:
[1] = Hepatic microsomal stability, rat; conditions: for half-life at 1 μM: Sprague-Dawley, pH 7.4
[2] = Hepatic microsome stability, mouse; assay type: in vitro ADME; conditions: mouse liver microsomes
Experimental: (§1) Hepatic microsomal stability assays were performed in two stages. In the first set of experiments, aliquots of the DMSO solute stocks were diluted into ACN and then into assay buffer (PBS, pH 7.4, ±0.05% PS80). Final experimental solute concentrations were 1 μM (0.6% ACN, 0.01% DMSO). Commercially available mouse, rat, or human hepatic microsomes (˜0.5 mg/ml final concentration), and NADPH (1 mM) or PBS were added. The resulting mixture was incubated at 37° C., and aliquots removed at 0, 1, 10, 30 and 60 min, then quenched with ACN containing 2 μM carbamazepine (internal standard). […] Duplicate incubations were run for each time-point. The percentage of solute remaining at the end of the incubation was used to determine solute half-life.
(§2) These were diluted 500-fold into 1 mL of microsomal incubation mixture to yield a final concentration of 1 μM. The incubation mixture was composed of 100 mM phosphate buffer, pH 7.4, and NADPH regenerating system (BD Biosciences NADPH Regenerating System Solutions A & B). This mixture was preincubated at 37° C. for 5 min in an Eppendorf Thermo mixer, and the reaction initiated by addition of 0.5 mg (25 μl of a 20 mg/mL solution) of liver microsomes. Aliquots (100 μl) were withdrawn at 0, 5, 15, 30, and 60 min, and added to 100 μl ACN containing internal standard. […] The percentage of solute remaining at the end of the incubation was used to determine species-specific values of scaled intrinsic clearance, hepatic clearance, and predicted hepatic extraction based upon the calculations below {Obach, 1999 #9097}.
(§3) for which mg microsomal protein/gm liver was 45 for all species, and gm liver/kg body weight were 32 for dog, 88 for mouse, 40 for rat and 25 for human.
(§4) Clh=(Q*Clint,scaled)/(Q+Clint,scaled)
(§5) for which Q was hepatic blood flow; values of 90 ml/min/kg for mouse, 66 ml/min/kg for rat, and 21 ml/min/kg for human were used.
(§6) for which ER estimates the amount of compound cleared during a single pass through the liver (Low ER<0.3, moderate ER 0.3-0.7, high ER>0.7).

[3] = Hepatic microsomal stability, human; conditions: for half-life at 1 μM: pH 7.4
[4] = for solubility in FaSSIF (in words): fasted-state simulated intestinal fluid; for solubility at pH 2.0 (in words): pH 2 (HCl) buffer
[5] = tested on: PrP^Sc in dividing ScN2a-cl3 cells; assay type: cell-based, mouse
[6] = Hepatic microsome stability, human; assay type: in vitro ADME; conditions: for hepatic extraction ratio (ER): human liver microsomes
Experimental: as §1, §2, §3, §4, §5, §6

[7] = Hepatic microsomal stability, mouse; conditions: for half-life at 1 μM: CD-1, mouse, pH 7.4
[8] = Multidose (three-day) pharmacokinetics in liquid diet in FVB mice; conditions: for concentration at 3 days: FVB, mouse, in vivo
[9] = tested on: PrP^Sc in dividing ScN2a-c13 cells; conditions: read-out: EC50 (ELISA), reduction of PrP^Sc load; dividing ScN2a-c13 cells
[10] = Tolerability / toxicity on repeated dosing in mice
[11] = cell culture media, plasma or biological fluid
[12] = pH 2 (HCl) buffer, pH 2, simulated gastric fluid
[13] = pH 7.4 (phosphate) buffer, pH 7.4, aqueous buffer
[14] = Table 29, 2-AMT analogs tested for potency, usually n = 3 or more
[15] = 40 mg/kg, Brain Concentration (Css), three-day dosing in liquid diet, brain
[16] = 40 mg/kg, Plasma Concentration (Css), three-day dosing in liquid diet, plasma
[17] = 80 mg/kg, Brain Concentration (Css), three-day dosing in liquid diet, brain
[18] = 80 mg/kg, Plasma Concentration (Css), three-day dosing in liquid diet, plasma
[19] = 130 mg/kg, Brain Concentration (Css), three-day dosing in liquid diet, brain
[20] = 130 mg/kg, Plasma Concentration (Css), three-day dosing in liquid diet, plasma
[21] = 210 mg/kg, Brain Concentration (Css), three-day dosing in liquid diet, brain
[22] = 210 mg/kg, Plasma Concentration (Css), three-day dosing in liquid diet, plasma
[23] = Brain and plasma concentrations, 40, 80, 130 and 210 mg/kg/day for 3 days

SMILES | half-life at 1 μM ([1]; rat) [min] | % remaining after a 60-min incubation, Rat [1] [%] | Hepatic Extraction Ratio Rat ([1]; rat microsomes) | hepatic extraction ratio (ER) [2] | % remaining after a 60-min incubation, Human ([3]; human liver microsomes) [%] | half-life at 1 μM ([3]; human, human liver microsomes) [min] | half-life at 1 μM ([3]; human, liver microsomes) [min] | solubility in FaSSIF (in words) [4] | solubility at pH 2.0 (in words) [4] | solubility (physchem; FaSSIF) [µM] | solubility (physchem; [11]) [µM] | solubility (physchem; [12]) [µM] | solubility (physchem; [13]) [µM] | EC50 ([5]; AMT analogs tested for potency) [nM] | EC50 [5, 14] [nM] | hepatic extraction ratio (ER) [6] | half-life at 1 μM ([7]; liver microsomes) [min] | half-life at 1 μM ([7]; mouse liver microsomes) [min] | % remaining after a 60-min incubation, Mouse ([7]; mouse liver microsomes) [%] | Hepatic Extraction Ratio Mouse ([7]; mouse microsomes) | other results
Cc1ccc(Nc2nc(-c3cc(-c4ccccc4)no3)cs2)nc1 [IND33, (5-Methyl-pyridin-2-yl)-[4-(3-phenyl-isoxazol-5-yl)-thiazol-2-yl]-amine] | > 60 | 73 | 0.3 | lower to moderate | 42 | 54 | 54 | higher solubility | lower | 70 (≈ 23.4 µg/mL) | 225 (≈ 75.2 µg/mL) | 1 (≈ 0.334 µg/mL) | < 1 | 940 | 940 | lower to moderate | 99 | > 60 | 111 | 0.5 | t1/2 Rat (extrapolated) ([1]; rat microsomes): 151* min; Hepatic Extraction Ratio Human ([3]; human): 0.7; Hepatic Extraction Ratio Human ([3]; human microsomes): 0.7; concentration at 3 days [8, 15]: 880 ± 680 nM; concentration at 3 days [8, 16]: 650 ± 380 nM; concentration at 3 days [8, 17]: 5390 ± 2930 nM; concentration at 3 days [8, 18]: 2850 ± 1300 nM; concentration at 3 days [8, 19]: 30000 nM; concentration at 3 days [8, 20]: 4740 ± 1310 nM; concentration at 3 days [8, 21]: 12600 ± 8620 nM; concentration at 3 days [8, 22]: 14200 ± 2090 nM; Brain Concentration (Css), 130 mg/kg ([8]; three-day dosing in liquid diet, 130 mg/kg, brain): 23300 ± 13200 nM
COc1ccc(-c2csc(Nc3ccc4ccccc4n3)n2)cc1OC [IND47, [4-(3,4-Dimethoxy-phenyl)-thiazol-2-yl]-quinolin-2-yl-amine] | > 60 | 50 | 0.5 | lower to moderate | 113 | > 60 | > 60 | lower solubility | lower solubility | 5 (≈ 1.82 µg/mL) | 52 (≈ 18.9 µg/mL) | < 1 | < 1 | 426 | 426 | lower to moderate | 72 | > 60 | 56 | 0.6 | t1/2 Rat (extrapolated) ([1]; rat microsomes): 69* min; concentration at 3 days [8, 15]: 400 ± 280 nM; concentration at 3 days [8, 16]: 130 ± 100 nM; concentration at 3 days [8, 18]: 30 ± 20 nM; concentration at 3 days [8, 19]: 400 ± 510 nM; concentration at 3 days [8, 20]: 60 ± 20 nM; concentration at 3 days [8, 21]: 230 ± 260 nM; concentration at 3 days [8, 22]: 120 ± 50 nM; concentration at 3 days [8, 23]: ≤ 1000 nM
Cc1ccnc(Nc2nc(-c3ccncc3)cs2)c1 [IND52, (4-Methyl-pyridin-2-yl)-(4-pyridin-4-yl-thiazol-2-yl)-amine] | 16 | 8 | 0.8 | higher | 30 | 36 | 36 |  |  | 2 (≈ 0.537 µg/mL) | 76 (≈ 20.4 µg/mL) | 215 (≈ 57.7 µg/mL) | 1 (≈ 0.268 µg/mL) | 4950 | 4950 | higher | 6 | 6 | 0 | 0.95 | Hepatic Extraction Ratio Rat ([1]; rat): 0.8; Hepatic Extraction Ratio Human ([3]; human): 0.8; Hepatic Extraction Ratio Human ([3]; human microsomes): 0.8; EC50 [9]: 4950 nM; Hepatic Extraction Ratio Mouse ([7]; mouse): 0.95; concentration at 3 days [8, 16]: 10 ± 10 nM; concentration at 3 days [8, 17]: 760 ± 1090 nM; concentration at 3 days [8, 18]: 670 ± 1000 nM; concentration at 3 days [8, 19]: 2340 ± 2130 nM; concentration at 3 days [8, 20]: 1930 ± 1580 nM; concentration at 3 days [8, 21]: 7650 ± 5570 nM; concentration at 3 days [8, 22]: 10900 ± 8440 nM; Brain Concentration (Css), 40 mg/kg ([8]; three-day dosing in liquid diet, 40 mg/kg, brain): no measurable brain concentrations
Cc1ccnc(Nc2nc(-c3ccc(-c4ccccn4)s3)cs2)c1 [IND81, (4-Methyl-pyridin-2-yl)-[4-(5-pyridin-2-yl-thiophen-2-yl)-thiazol-2-yl]-amine] | 58 | 48 |  |  | 48 | 52 | 52 | lower solubility | higher solubility | 3 (≈ 1.05 µg/mL) | 207 (≈ 72.5 µg/mL) | 78 (≈ 27.3 µg/mL) | < 1 |  |  |  | 19 | 19 | 10 |  | half-life at 1 μM ([3]; both, human, liver microsomes): 40 min; tolerability ([10]; chronic studies in mice, wide range of doses): well tolerated; metabolism in HLM incubations ([6]; pooled human liver microsomes, 1 μM, 60 min, with or without CYP inhibitors): relatively high turnover; half-life at 1 μM ([7]; female, liver microsomes): 26 min; half-life at 1 μM ([7]; male, liver microsomes): 23 min
c1ccc2cc(Nc3nc(-c4ccncc4)cs3)ncc2c1 [IND85, Isoquinolin-3-yl-(4-pyridin-4-yl-thiazol-2-yl)-amine] | 18 | 32 | 0.8 | higher | 66 | 53 | 53 | lower solubility | higher solubility | 3 (≈ 0.913 µg/mL) | 116 (≈ 35.3 µg/mL) | 196 (≈ 59.7 µg/mL) | < 1 | 307 | 307 | higher | 15 | 15 | 6 | 0.9 | Hepatic Extraction Ratio Rat ([1]; rat): 0.8; Hepatic Extraction Ratio Human ([3]; human): 0.7; Hepatic Extraction Ratio Human ([3]; human microsomes): 0.7; Hepatic Extraction Ratio Mouse ([7]; mouse): 0.9; concentration at 3 days [8, 15]: 20 ± 30 nM; concentration at 3 days [8, 17]: 80 ± 30 nM; concentration at 3 days [8, 19]: 40 ± 30 nM; concentration at 3 days [8, 21]: 100 ± 70 nM; concentration at 3 days [8, 23]: ≤ 1000 nM
C(=N\Nc1ccc(-c2cnco2)cc1)/c1ccncc1 [IND54304, reference compound] |  |  |  | moderate (moderate ER 0.3-0.7) |  |  |  |  |  |  |  |  |  |  |  | low (Low ER<0.3) |  |  |  |  | Hepatic Extraction Ratio Rat Female ([1]; female rat microsomes): 0.27; Hepatic Extraction Ratio Rat Male ([1]; male rat microsomes): 0.27; half-life at 1 μM ([3]; both, human, liver microsomes): 130 min; Hepatic Extraction Ratio Human ([3]; human (mixed) microsomes, gender study): 0.34; EC50 [9]: 400 nM; tolerability ([10]; 25, 50, 100, 150 mg/kg for 3 days in liquid diet): tolerated; animals dying ([10]; ≧150 mg/kg/day for 8 days): 2/4; Hepatic Extraction Ratio Mouse Female ([7]; female mouse microsomes): 0.64; half-life at 1 μM ([7]; female, liver microsomes): 34 min; Hepatic Extraction Ratio Mouse Male ([7]; male mouse microsomes): 0.71; half-life at 1 μM ([7]; male, liver microsomes): 25 min
